System: 415267-285-R-J2-PDC complex spheroid viability
Assay: Anticancer human tumor 415267-285-R-J2-PDC patient-derived breast carcinoma cell line growth inhibition [POLQ]
Settings: for IC50: curve of first compound; for viability, T/C: stronger effect = lower value
Summary of the method: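 Three-cell-type spheroids modelling solid tumor plus stroma served as the readout system; POL inhibitors were tested individually and in combination, concentration ranges set by clinical Cmax where known.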
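Also: spheroids exposed to compounds for one week before readout.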
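For viability, T/C in this document: luminescence used as stand-in measure of viable cells; 100% = DMSO vehicle control viability.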

CC(=O)O[C@H]1C(=O)[C@@]2(C)[C@H]([C@H](OC(=O)c3ccccc3)[C@]3(O)C[C@H](OC(=O)[C@H](O)[C@@H](NC(=O)c4ccccc4)c4ccccc4)C(C)=C1C3(C)C)[C@]1(OC(C)=O)CO[C@@H]1C[C@@H]2O + Cc1cccc(N(C)C(=O)C2C(O)CCN2c2nc(C)cc(C(F)(F)F)c2C#N)c1
IC50 (second compound 0.0316 µM): < 9.49 nM
IC50 (second compound 0.1 µM): < 9.49 nM
IC50 (second compound 0.316 µM): < 9.49 nM
IC50 (second compound 1 µM): < 9.49 nM
IC50 (second compound 3.16 µM): < 9.49 nM
IC50 (second compound 10 µM): < 9.49 nM
viability, T/C (second compound 0.0316 µM, first compound 0.00949 µM): 17.5%
viability, T/C (second compound 0.0316 µM, first compound 0.03 µM): 9.49%
viability, T/C (second compound 0.0316 µM, first compound 0.0949 µM): 9.45%
viability, T/C (second compound 0.0316 µM, first compound 0.3 µM): 5.12%
viability, T/C (second compound 0.0316 µM, first compound 0.949 µM): 6.11%
viability, T/C (second compound 0.0316 µM, first compound 3 µM): 8.5%
viability, T/C (second compound 0.1 µM, first compound 0.00949 µM): 14.3%
viability, T/C (second compound 0.1 µM, first compound 0.03 µM): 10.3%
viability, T/C (second compound 0.1 µM, first compound 0.0949 µM): 6.91%
viability, T/C (second compound 0.1 µM, first compound 0.3 µM): 5.82%
viability, T/C (second compound 0.1 µM, first compound 0.949 µM): 6.96%
viability, T/C (second compound 0.1 µM, first compound 3 µM): 7.65%
viability, T/C (second compound 0.316 µM, first compound 0.00949 µM): 15.2%
viability, T/C (second compound 0.316 µM, first compound 0.03 µM): 10.9%
viability, T/C (second compound 0.316 µM, first compound 0.0949 µM): 8.77%
viability, T/C (second compound 0.316 µM, first compound 0.3 µM): 8.04%
viability, T/C (second compound 0.316 µM, first compound 0.949 µM): 7.71%
viability, T/C (second compound 0.316 µM, first compound 3 µM): 6.2%
viability, T/C (second compound 1 µM, first compound 0.00949 µM): 16.9%
viability, T/C (second compound 1 µM, first compound 0.03 µM): 8.87%
viability, T/C (second compound 1 µM, first compound 0.0949 µM): 7.59%
viability, T/C (second compound 1 µM, first compound 0.3 µM): 5.96%
viability, T/C (second compound 1 µM, first compound 0.949 µM): 7.86%
viability, T/C (second compound 1 µM, first compound 3 µM): 7.38%
viability, T/C (second compound 3.16 µM, first compound 0.00949 µM): 13.7%
viability, T/C (second compound 3.16 µM, first compound 0.03 µM): 9.96%
viability, T/C (second compound 3.16 µM, first compound 0.0949 µM): 7.09%
viability, T/C (second compound 3.16 µM, first compound 0.3 µM): 7.4%
viability, T/C (second compound 3.16 µM, first compound 0.949 µM): 6.8%
viability, T/C (second compound 3.16 µM, first compound 3 µM): 8.17%
viability, T/C (second compound 10 µM, first compound 0.00949 µM): 12.7%
viability, T/C (second compound 10 µM, first compound 0.03 µM): 10%
viability, T/C (second compound 10 µM, first compound 0.0949 µM): 8.12%
viability, T/C (second compound 10 µM, first compound 0.3 µM): 8.5%
viability, T/C (second compound 10 µM, first compound 0.949 µM): 8.14%
viability, T/C (second compound 10 µM, first compound 3 µM): 9.36%

From PubChem BioAssay AID1963847 (Molecular Pharmacology Branch, DTP, NCI, 2024)
